Experimental data: ChEMBL document CHEMBL5523743, “Identification of Psychoplastogenic Tropanes Lacking Muscarinic Activity” (J Med Chem, 2024)
Calls of active or inactive are those of the source. No cut-off for these calls is given here.

Legend:
[1] = tested on: Neuron; experiment: Neuroplasticity effect in Wistar rat brain cortical neuron assessed as increase in neurite outgrowth at 0.25 to 10 uM after 72 hrs; format: functional, cell-based; conditions: dose 0.25-10 µM
[2] = molecular target: T1, Muscarinic acetylcholine receptor M1 (Homo sapiens) (UniProt P11229); experiment: Antagonist activity at recombinant human M1 receptor expressed in CHO-K1 cells incubated for 15 mins in presence of acetylcholine by aequorin assay; format: functional, cell-based; conditions: filed as antagonist
T1 sequence (whole entry): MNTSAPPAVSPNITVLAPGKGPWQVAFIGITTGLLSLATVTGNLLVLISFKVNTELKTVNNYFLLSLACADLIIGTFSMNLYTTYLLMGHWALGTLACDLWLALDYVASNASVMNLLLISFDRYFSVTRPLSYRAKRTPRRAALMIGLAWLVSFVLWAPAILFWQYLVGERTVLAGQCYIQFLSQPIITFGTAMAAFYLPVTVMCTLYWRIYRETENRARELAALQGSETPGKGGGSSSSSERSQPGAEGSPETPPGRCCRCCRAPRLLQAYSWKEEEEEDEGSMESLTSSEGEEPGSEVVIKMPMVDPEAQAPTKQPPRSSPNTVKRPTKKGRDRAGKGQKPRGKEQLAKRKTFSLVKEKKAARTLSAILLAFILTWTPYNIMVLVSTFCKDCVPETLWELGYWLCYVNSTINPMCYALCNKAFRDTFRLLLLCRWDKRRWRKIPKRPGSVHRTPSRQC

[3] = tested on: Neuron; experiment: Cytotoxicity against Wistar rat brain cortical neurons assessed as neurite restriction; format: toxicity, cell-based; conditions: dose 0.25-10 µM
[4] = molecular target: T2, 5-hydroxytryptamine receptor 2C (Homo sapiens) (UniProt P28335); experiment: Antagonist activity at recombinant human 5HT2CR expressed in CHO-K1 cells incubated for 60 mins in presence of alpha-Me-5HT by HTRF method; format: functional, cell-based; conditions: filed as antagonist
T2 sequence (whole entry): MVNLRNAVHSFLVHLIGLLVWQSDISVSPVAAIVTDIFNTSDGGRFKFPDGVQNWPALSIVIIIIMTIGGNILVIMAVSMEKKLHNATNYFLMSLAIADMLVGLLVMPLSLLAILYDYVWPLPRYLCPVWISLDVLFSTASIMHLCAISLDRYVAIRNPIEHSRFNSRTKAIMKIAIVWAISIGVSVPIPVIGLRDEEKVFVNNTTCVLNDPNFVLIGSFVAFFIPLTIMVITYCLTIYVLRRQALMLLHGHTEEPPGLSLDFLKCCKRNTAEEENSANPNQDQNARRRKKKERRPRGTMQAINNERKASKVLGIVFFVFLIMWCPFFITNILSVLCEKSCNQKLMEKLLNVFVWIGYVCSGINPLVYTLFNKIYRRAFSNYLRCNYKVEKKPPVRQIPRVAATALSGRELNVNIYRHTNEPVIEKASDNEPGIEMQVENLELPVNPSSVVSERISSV

[5] = tested on: Neuron; experiment: Neuroplasticity effect in Wistar rat brain cortical neuron assessed as increase in neurite outgrowth after 72 hrs; format: functional, cell-based; conditions: dose 0.25-10 µM

Row | SMILES | Activity [1] | Activity [2] | other results
1 | CN1[C@H]2C[C@H](O)C[C@@H]1[C@@H](c1ccccc1)C2 | inactive |  | 
2 | COc1cccc([C@H]2C[C@@H]3CCC[C@H]2N3C)c1 | Active | Active | 
3 | CN1[C@H]2CCC[C@@H]1[C@@H](c1cccc(F)c1)C2 | Active | Active | 
4 | CN1[C@@H]2CCC[C@H]1[C@H]1[C@@H]2N1c1cccc2[nH]ccc12 | inactive |  | Activity [3]: Dose-Dependent Effect
5 | CN1[C@H]2CCC[C@@H]1[C@@H](c1ccc(F)cc1)C2 | inactive |  | 
6 | c1ccc(CCN2[C@@H]3CCC[C@H]2CC3)cc1 | Active |  | 
7 | CN1[C@H]2CC[C@@H]1C=C(c1c[nH]c3ccccc13)C2 | inactive |  | Activity [4]: Active
8 | CN1[C@@H]2CCC[C@H]1[C@H]1[C@@H]2N1c1ccccc1 | inactive |  | 
9 | CN1[C@H]2C[C@@H](O)C[C@@H]1[C@@H](c1ccccc1)C2 | inactive |  | 
10 | CN1[C@H]2C[C@@H](OC(=O)c3ccccc3)C[C@@H]1[C@@H](c1ccccc1)C2 | Active | Active | 
11 | CN1[C@@H]2CC[C@H]1C[C@H](OC(=O)/C=C/c1ccccc1)C2 |  |  | Activity [5]: Dose-Dependent Effect
12 | CN1[C@H]2C[C@H](OC(=O)c3ccccc3)C[C@@H]1[C@@H](c1ccccc1)C2 | inactive | Active | 
13 | O=C1C[C@H]2C[C@H](O)[C@@H](C1)N2CCc1c[nH]c2ccccc12 | Active |  | 
